Test [1] deals with T1, JAK3 JH2 (Homo sapiens, UniProt P52333).
T1 construct: JAK3 JH2 (residues 511–790) was cloned into the pFASTBAC1 vector (Invitrogen) with a C-terminal His6 tag; His6 (C); made in house; host or cells: Spodoptera frugiperda (Sf9) insect cells, baculovirus (pFASTBAC1)
T1 sequence (P52333 511-790): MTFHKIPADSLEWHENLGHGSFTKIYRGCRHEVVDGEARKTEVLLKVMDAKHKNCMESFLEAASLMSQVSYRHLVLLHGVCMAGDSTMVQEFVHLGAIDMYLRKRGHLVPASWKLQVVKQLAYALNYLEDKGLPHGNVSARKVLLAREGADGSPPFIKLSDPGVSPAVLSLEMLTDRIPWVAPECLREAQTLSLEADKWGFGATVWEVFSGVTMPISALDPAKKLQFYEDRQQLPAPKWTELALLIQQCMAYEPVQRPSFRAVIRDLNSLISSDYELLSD
The test can be described thus: MANT-ATP binding assay (steady-state FRET). How it is done:
The steady-state fluorescence of MANT-labeled ATP was measured as described in Mysore et al. ([34]). Briefly, the fluorescently labeled MANT (2′/3′-(N-methyl-anthraniloyl)-ATP was titrated against 1.5 μM recombinant JAK3 JH2. In addition, the protein was titrated as 0, 0.05, 0.25, 1.25, and […] against 0.25 μM MANT-ATP. FRET signal was measured with QuantaMaster PTI Fluorometer and the data was analyzed using GraphPad Prism version 5.02 and Microsoft Excel. Protein titrations were done in duplicate and in MANT-ATP titration in triplicate.

The target in test [2] is T2, JAK2 JH2.
T2 construct: JAK2 JH2 503-827-His; His (C)
Set-up: method as in PMID 25825724. Particulars: JAK2 JH2, with MgCl2; read-out: Kd (MANT-ATP); cited from earlier work.

Test [3] concerns the target T3, JAK1 JH2.
T3 construct: Recombinant JAK1 JH2 553-836-His; His (C)
Also on record: method as in PMID 25825724. To be noted: JAK1 JH2, with MgCl2; read-out: Kd (MANT-ATP); cited from earlier work.

Test [4] concerns the target T4, TYK2 JH2.
T4 construct: TYK2 JH2 564-876-His proteins; His (C)
Also on record: method as in PMID 26359499. To be noted: TYK2 JH2, with MgCl2; read-out: Kd (MANT-ATP); cited from earlier work.

Test [5] concerns the target T1, JAK3 JH2. The test can be described thus: Differential scanning fluorimetry (thermal shift). Format: binding. Particulars: for Effect of nucleotide on Tm (ΔTm): JAK3 JH2, nucleotide titration 0.2, 0.5, 1 mM. How it is done:
(§1) Protein concentration of 3 μM was used for the measurement of the melting temperature (Tm). Reactions were done in the buffer used in the SEC. Addition of other components (ATP, salts) were taken into account by including 2X buffer, if needed. Signal arising from the fluorescent dye Life Technologies SYPRO^TM Orange Protein Gel Stain, 4X working solution from 5000X concentrate in DMSO) was measured with a conventional Real-Time PCR system (Bio-Rad CFX), 1°C per min from 4 to 96°C. Results were transferred and normalized in Microsoft Excel and the Tm was derived from the sigmoidal function using GraphPad Prism version 5.02 for Windows, GraphPad Software, La Jolla California USA, https://www.graphpad.com/.
Background: DSF heats the sample and reads unfolding from a dye or from intrinsic fluorescence.

Another test concerns the target T5, JAK1 JH2 553-836-His (Homo sapiens, UniProt P23458).
T5 construct: Recombinant JAK1 JH2 553-836-His; His (C)
In words: Fluorescence polarization competition assay (ATP vs Bodipy FL JNJ-7706621 tracer). To be noted: JAK1 JH2, ATP competing with tracer, with MgCl2. Type of test: binding. How it is done: (§2) Fluorescence polarization measurements were performed in black 384-well plates (ProxiPlate-384 F Plus, PerkinElmer) at sample volume of 5 μl/well on PerkinElmer Envision plate reader using 480 nm excitation and 535 nm emission filters. Fluorescent tracer, Bodipy FL labeled JNJ-7706621 [compound 5 in ([35])] was used at 1.5 nM concentration. Recombinant JAK1 JH2 553-836-His, JAK2 JH2 503-827-His, JAK3 JH2 511-790-His, and TYK2 JH2 564-876-His proteins were used at concentrations (2 nM JAK1, 150 nM JAK2, 1 μM JAK3, 20 nM TYK2) dependent on protein-tracer dissociation constants. The assays were performed in a buffer consisting of 20 mM Tris-HCl pH 8.0, 150 mM NaCl, 20% glycerol, 0.01% Brij-35, and 2 mM DTT. ATP was titrated at concentration range of 5 nM−5 μM and fluorescence polarization values obtained were fitted against log[ATP] in GraphPad Prism to yield IC50 values. Assays were performed in triplicate.

A further test has as its target T6, JAK2 JH2 503-827-His (Homo sapiens, UniProt O60674).
T6 construct: JAK2 JH2 503-827-His; His (C)
Described as above. Format: binding. To be noted: JAK2 JH2, ATP competing with tracer, with MgCl2. How it is done:
as §2

Another test addresses T7, JAK3 JH2 511-790-His (Homo sapiens, UniProt P52333).
T7 construct: JAK3 JH2 (residues 511–790) was cloned into the pFASTBAC1 vector (Invitrogen) with a C-terminal His6 tag; His6 (C); made in house; host or cells: Spodoptera frugiperda (Sf9) insect cells, baculovirus (pFASTBAC1)
T7 sequence (P52333 511-790): T1 sequence (P52333 511-790)
The description is as above. Type of test: binding. Particulars: JAK3 JH2, ATP competing with tracer, no MgCl2 added. How it is done:
as §2

The target of a further test is T8, TYK2 JH2 564-876-His (Homo sapiens, UniProt P29597).
T8 construct: TYK2 JH2 564-876-His proteins; His (C)
T8 sequence (P29597 564-876): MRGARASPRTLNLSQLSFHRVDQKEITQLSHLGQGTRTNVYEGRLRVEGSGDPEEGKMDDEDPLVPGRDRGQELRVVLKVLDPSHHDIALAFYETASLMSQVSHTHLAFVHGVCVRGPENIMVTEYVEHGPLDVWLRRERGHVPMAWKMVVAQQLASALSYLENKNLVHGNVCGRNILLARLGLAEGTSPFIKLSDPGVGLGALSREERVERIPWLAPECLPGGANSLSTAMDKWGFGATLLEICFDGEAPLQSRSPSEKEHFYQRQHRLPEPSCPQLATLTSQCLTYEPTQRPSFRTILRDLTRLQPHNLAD
The description is as above. Format: binding. To be noted: TYK2 JH2, ATP competing with tracer, with MgCl2. How it is done: as §2

The test system of test [6] is T3, JAK1 JH2. In words: Differential scanning fluorimetry (thermal shift). Type of test: binding. To be noted: JAK1 JH2, 1 mM ATP. How it is done:
as §1

The test system of test [7] is T2, JAK2 JH2. In words: Differential scanning fluorimetry (thermal shift). Type of test: binding. How it is done: as §1
Test [8] has as its system T4, TYK2 JH2. In words: Differential scanning fluorimetry (thermal shift). Format: binding. How it is done:
as §1

The source of these data is PMC6287396, “Hyperactivation of Oncogenic JAK3 Mutants Depend on ATP Binding to the Pseudokinase Domain” (Frontiers in Oncology, 2018).

T6 sequence (O60674 503-827): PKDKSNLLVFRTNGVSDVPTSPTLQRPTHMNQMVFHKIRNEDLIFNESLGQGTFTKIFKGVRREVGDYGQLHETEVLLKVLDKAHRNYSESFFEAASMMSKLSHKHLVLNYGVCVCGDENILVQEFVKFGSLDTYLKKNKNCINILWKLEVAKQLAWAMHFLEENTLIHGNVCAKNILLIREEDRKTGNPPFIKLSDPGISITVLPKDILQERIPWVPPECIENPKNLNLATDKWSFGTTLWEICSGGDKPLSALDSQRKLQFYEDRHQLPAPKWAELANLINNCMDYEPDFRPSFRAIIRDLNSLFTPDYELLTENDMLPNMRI
T5 sequence (P23458 553-836): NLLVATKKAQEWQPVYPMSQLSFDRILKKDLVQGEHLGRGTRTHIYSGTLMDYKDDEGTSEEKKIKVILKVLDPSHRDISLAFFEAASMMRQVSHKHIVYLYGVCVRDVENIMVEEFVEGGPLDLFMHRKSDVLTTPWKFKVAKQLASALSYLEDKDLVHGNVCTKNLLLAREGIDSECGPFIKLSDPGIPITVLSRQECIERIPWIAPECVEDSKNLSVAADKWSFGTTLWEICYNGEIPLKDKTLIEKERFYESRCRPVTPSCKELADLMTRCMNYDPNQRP

Usually Kd stands for the equilibrium constant for the complex coming apart. Turning to “2′/3′-(N-methyl-anthraniloyl)-ATP [MANT-ATP]”, the “fold tighter MANT-ATP binding of JAK3 JH2 compared to JAK1 JH2” value at JAK3 JH2 [1] (JAK3 JH2 vs JAK1 JH2) is recorded as 6 fold. In addition, the “fold tighter MANT-ATP binding of JAK3 JH2 compared to JAK2 JH2” value at JAK3 JH2 [1] (JAK3 JH2 vs JAK2 JH2) is 3 fold. For the same compound, the “fold tighter MANT-ATP binding of JAK3 JH2 compared to TYK2 JH2” value at JAK3 JH2 [1] (JAK3 JH2 vs TYK2 JH2) is 30 fold. Also, the dissociation constant Kd is 1.3 µM on JAK2 JH2 [2], 3.1 µM at JAK1 JH2 [3] and 15 µM on TYK2 JH2 [4].

Turning to `Nc1ncnc2c1ncn2[C@@H]1O[C@H](COP(=O)(O)OP(=O)(O)O)[C@@H](O)[C@H]1O` [ADP], on JAK3 JH2 [5], the “Effect of nucleotide on Tm (ΔTm)” value was “significantly reduced ΔTm compared to ATP”.

On to `Nc1ncnc2c1ncn2[C@@H]1O[C@H](COP(=O)(O)O)[C@@H](O)[C@H]1O` [AMP], for which the “Effect of nucleotide on Tm (ΔTm)” value on JAK3 JH2 [5] was “no effect on Tm”.

For orientation: IC50 means the midpoint of a concentration-inhibition curve. One may read the ΔTm as the change in melting temperature against a reference sample. Take `Nc1ncnc2c1ncn2[C@@H]1O[C@H](COP(=O)(O)OP(=O)(O)OP(=O)(O)O)[C@@H](O)[C@H]1O` [ATP]: the IC50 is 110 µM on JAK1 JH2 553-836-His, 102 µM on JAK2 JH2 503-827-His, 16 µM at JAK3 JH2 511-790-His and 471 µM on TYK2 JH2 564-876-His. Besides, the “ΔTm (1 mM ATP)” value with JAK1 JH2 [6] is 3.9 °C; with JAK2 JH2 [7] (JAK2 JH2, 1 mM ATP) it was 4.9 °C; in the test with TYK2 JH2 [8] (TYK2 JH2, 1 mM ATP), 0.9 °C. The results for the TmATP in the test with JAK2 JH2 [7] (melting temperature of JAK2 JH2 with ATP), on JAK3 JH2 [5] (melting temperature of JAK3 JH2 with ATP) and in the test with TYK2 JH2 [8] (melting temperature of TYK2 JH2 with ATP) were 46 °C, 41 °C and 48 °C, respectively. For the same compound, the equilibrium dissociation constant (Kd) at JAK3 JH2 [5] (50 nM−1 mM ATP titrated to 3 μM JAK3 JH2, read-out: Kd approximated with DSF) was determined as 40.4 ± 97.1 µM. At JAK3 JH2 [5] (JAK3 JH2, 0.2 mM ATP), the ΔTm came to 8 °C.
